Values of other authors as cited in article PMC9516332 (Frontiers in Oncology, 2022).
Like-named read-outs stand apart in the source and are kept apart here.

Columns and labels:
Conditions in all cases: cited from earlier work
[1] = biological target: T1, panel of 255 wild-type kinases (Homo sapiens, UniProt O14965)
T1 sequence (O14965 1-403): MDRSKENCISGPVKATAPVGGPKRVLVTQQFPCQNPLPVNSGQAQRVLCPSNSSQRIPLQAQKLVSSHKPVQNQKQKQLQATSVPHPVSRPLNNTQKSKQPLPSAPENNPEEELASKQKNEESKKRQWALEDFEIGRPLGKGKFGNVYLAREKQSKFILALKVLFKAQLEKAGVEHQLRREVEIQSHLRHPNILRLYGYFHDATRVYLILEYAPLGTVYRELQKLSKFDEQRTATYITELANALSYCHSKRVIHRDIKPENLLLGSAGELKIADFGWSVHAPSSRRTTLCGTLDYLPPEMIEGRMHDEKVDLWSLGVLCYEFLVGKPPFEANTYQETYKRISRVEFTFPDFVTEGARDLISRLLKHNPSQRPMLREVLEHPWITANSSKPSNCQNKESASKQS

[2] = biological target: T2, panel of 255 wild-type kinases (Homo sapiens, UniProt P36888)
T2 sequence (P36888 27-993): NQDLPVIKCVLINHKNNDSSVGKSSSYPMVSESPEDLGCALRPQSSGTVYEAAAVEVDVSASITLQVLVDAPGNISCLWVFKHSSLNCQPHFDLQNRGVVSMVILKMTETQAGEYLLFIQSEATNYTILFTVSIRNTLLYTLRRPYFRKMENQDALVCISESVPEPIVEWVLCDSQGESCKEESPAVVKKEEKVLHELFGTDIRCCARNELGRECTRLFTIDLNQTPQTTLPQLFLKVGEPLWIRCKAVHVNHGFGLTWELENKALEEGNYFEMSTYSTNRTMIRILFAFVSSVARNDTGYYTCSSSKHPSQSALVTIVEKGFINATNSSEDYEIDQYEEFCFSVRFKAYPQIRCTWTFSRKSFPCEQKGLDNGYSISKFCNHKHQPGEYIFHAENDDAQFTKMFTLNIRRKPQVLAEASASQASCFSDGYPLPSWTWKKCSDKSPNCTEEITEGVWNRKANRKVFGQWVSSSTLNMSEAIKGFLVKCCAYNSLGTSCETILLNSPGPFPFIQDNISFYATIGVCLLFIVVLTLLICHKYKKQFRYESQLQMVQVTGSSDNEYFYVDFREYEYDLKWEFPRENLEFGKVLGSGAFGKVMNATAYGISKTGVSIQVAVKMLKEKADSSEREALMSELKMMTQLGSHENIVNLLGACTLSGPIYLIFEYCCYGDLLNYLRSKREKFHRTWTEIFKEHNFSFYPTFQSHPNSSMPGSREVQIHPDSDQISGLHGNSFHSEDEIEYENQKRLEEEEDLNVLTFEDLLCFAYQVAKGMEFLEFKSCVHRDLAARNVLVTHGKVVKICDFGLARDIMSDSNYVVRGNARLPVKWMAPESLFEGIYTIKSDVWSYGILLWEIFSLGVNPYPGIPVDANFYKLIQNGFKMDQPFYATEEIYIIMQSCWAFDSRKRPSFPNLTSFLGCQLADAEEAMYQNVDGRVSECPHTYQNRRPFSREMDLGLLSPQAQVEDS

[3] = biological target: T3, panel of 255 wild-type kinases (Homo sapiens, UniProt P53778)
T3 sequence (P53778 1-367): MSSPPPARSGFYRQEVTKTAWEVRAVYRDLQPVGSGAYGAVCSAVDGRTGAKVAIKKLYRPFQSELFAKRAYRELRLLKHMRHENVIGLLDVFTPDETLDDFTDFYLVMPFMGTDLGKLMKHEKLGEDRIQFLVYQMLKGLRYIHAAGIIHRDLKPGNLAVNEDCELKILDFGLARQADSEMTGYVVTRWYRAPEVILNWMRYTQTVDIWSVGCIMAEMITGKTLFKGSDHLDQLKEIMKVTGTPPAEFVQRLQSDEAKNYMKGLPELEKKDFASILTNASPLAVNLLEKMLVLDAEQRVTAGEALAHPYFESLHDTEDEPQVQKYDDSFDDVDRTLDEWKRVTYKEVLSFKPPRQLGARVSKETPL

[4] = biological target: panel of 255 wild-type kinases (Homo sapiens, UniProt Q13554)
[5] = biological target: panel of 255 wild-type kinases (Homo sapiens, UniProt Q13153)
[6] = biological target: panel of 255 wild-type kinases (Homo sapiens, UniProt P49674)
[7] = AurA kinase assay, 1 µmol/L single concentration, ref DOI: 10.1158/1535-7163.MCT-18-0877
[8] = AurA/TPX2 kinase assay, 1 µmol/L single concentration, ref DOI: 10.1158/1535-7163.MCT-18-0877
[9] = kinase FLT3, 1 µmol/L single concentration, ref DOI: 10.1158/1535-7163.MCT-18-0877
[10] = p38γ, 1 µmol/L single concentration, ref DOI: 10.1158/1535-7163.MCT-18-0877
[11] = CaMK2β kinase assay, 1 µmol/L single concentration, ref DOI: 10.1158/1535-7163.MCT-18-0877
[12] = PAK1, 1 µmol/L single concentration, ref DOI: 10.1158/1535-7163.MCT-18-0877
[13] = kinase CK1ε, 1 µmol/L single concentration, ref DOI: 10.1158/1535-7163.MCT-18-0877
[14] = PAK1, 1 µmol/L single concentration, ref DOI: 10.1371/journal.pone.0092146
[15] = kinase CK1ε, 1 µmol/L single concentration, ref DOI: 10.1371/journal.pone.0092146
[16] = kinase FLT3, 1 µmol/L single concentration, ref DOI: 10.1371/journal.pone.0092146
[17] = p38γ, 1 µmol/L single concentration, ref DOI: 10.1371/journal.pone.0092146
[18] = CaMK2β kinase assay, 1 µmol/L single concentration, ref DOI: 10.1371/journal.pone.0092146
[19] = AurA kinase assay, 1 µmol/L single concentration, ref DOI: 10.1371/journal.pone.0092146
[20] = AurA/TPX2 kinase assay, 1 µmol/L single concentration, ref DOI: 10.1371/journal.pone.0092146

Compound | %-inhibition AurA [1, 7] [%] | %-inhibition AurA/TPX2 [1, 8] [%] | %-inhibition at 1 µmol/L, FLT3 [2, 9] [%] | %-inhibition, p38γ [3, 10] [%] | %-inhibition CaMK2β [4, 11] [%] | %-inhibition, PAK1 [5, 12] [%] | %-inhibition at 1 µmol/L, CK1ε [6, 13] [%] | %-inhibition at 1 µmol/L, CK1ε [6, 15] [%] | also measured
CC#CC(=O)N1CCC[C@H]1c1nc(-c2ccc(C(=O)Nc3ccccn3)cc2)c2c(N)nccn12 [acalabrutinib] | 2.34 | -4.71 | 3.27 | -1.74 | -1.09 | -0.369 | -10 | – | –
CCc1cc2c(cc1N1CCC(N3CCOCC3)CC1)C(C)(C)c1[nH]c3cc(C#N)ccc3c1C2=O [alectinib] | 5 | -3 | 78 | 1.73 | 2.14 | -14 | 4.48 | – | –
COc1cc(N2CCC(N3CCN(C)CC3)CC2)ccc1Nc1ncc(Cl)c(Nc2ccccc2P(C)(C)=O)n1 [brigatinib] | – | – | – | – | – | – | – | – | %-inhibition AurA [1]: 79%; %-inhibition AurA/TPX2 [1]: 74%; %-inhibition at 1 µmol/L, FLT3 [2]: 101%; %-inhibition, p38γ [3]: 3%; %-inhibition CaMK2β [4]: 64%; %-inhibition, PAK1 [5]: 4.27%; %-inhibition at 1 µmol/L, CK1ε [6]: 0.661%
Cc1cc(Nc2ncc(Cl)c(Nc3ccccc3S(=O)(=O)C(C)C)n2)c(OC(C)C)cc1C1CCNCC1 [ceritinib] | 12 | 2.84 | – | 3.32 | 23 | 7.58 | 5 | – | –
O=C(c1ccc(F)c(F)c1Nc1ccc(I)cc1F)N1CC(O)([C@@H]2CCCCN2)C1 [cobimetinib] | -0.696 | -1.88 | -0.393 | 2 | -0.487 | 3.21 | 2.44 | – | –
C[C@@H](Oc1cc(-c2cnn(C3CCNCC3)c2)cnc1N)c1c(Cl)ccc(F)c1Cl [crizotinib] | – | – | – | – | – | – | – | 4 | %-inhibition, PAK1 [5, 14]: -4%
CC(C)(C)c1nc(-c2cccc(NS(=O)(=O)c3c(F)cccc3F)c2F)c(-c2ccnc(N)n2)s1 [dabrafenib] | – | – | – | – | – | – | – | 10 | %-inhibition at 1 µmol/L, FLT3 [2, 16]: 41%; %-inhibition, p38γ [3, 17]: 0.311%; %-inhibition CaMK2β [4, 18]: -0.277%
C=CC(=O)N1CCC[C@@H](n2nc(-c3ccc(Oc4ccccc4)cc3)c3c(N)ncnc32)C1 [ibrutinib] | 30 | -2.33 | 63 | 3.51 | -2.56 | 6.57 | 50 | – | –
CO[C@@H]1[C@H](N(C)C(=O)c2ccccc2)C[C@H]2O[C@]1(C)n1c3ccccc3c3c4c(c5c6ccccc6n2c5c31)C(=O)NC4 [midostaurin] | – | – | – | 7 | – | – | – | – | %-inhibition AurA [1]: 100%; %-inhibition AurA/TPX2 [1]: 91%
C=CC(=O)Nc1cc(Nc2nccc(-c3cn(C)c4ccccc34)n2)c(OC)cc1N(C)CCN(C)C [osimertinib] | 9 | 7.38 | 84 | 2.19 | 5 | -44 | 18 | – | –
CC(=O)Nc1cccc(-n2c(=O)n(C3CC3)c(=O)c3c(Nc4ccc(I)cc4F)n(C)c(=O)c(C)c32)c1 [trametinib] | – | – | – | – | – | – | – | -5.38 | %-inhibition AurA [1, 19]: -2%; %-inhibition AurA/TPX2 [1, 20]: -5.37%; %-inhibition at 1 µmol/L, FLT3 [2, 16]: 20%; %-inhibition, p38γ [3, 17]: 0.684%; %-inhibition CaMK2β [4, 18]: 0.738%; %-inhibition, PAK1 [5, 14]: -1.35%
CCCS(=O)(=O)Nc1ccc(F)c(C(=O)c2c[nH]c3ncc(-c4ccc(Cl)cc4)cc23)c1F [vemurafenib] | – | – | – | – | – | – | – | 2.46 | %-inhibition AurA [1, 19]: 23%; %-inhibition AurA/TPX2 [1, 20]: -2.59%; %-inhibition at 1 µmol/L, FLT3 [2, 16]: 10%; %-inhibition, p38γ [3, 17]: -0.299%; %-inhibition CaMK2β [4, 18]: -6.64%; %-inhibition, PAK1 [5, 14]: -5%
